Results from patent publication US20230123334A1, “AMINO LIPID COMPOUND, PREPARATION METHOD THEREFOR, AND APPLICATION THEREOF” (SHENZHEN SHENXIN BIOTECHNOLOGY CO., LTD., priority 2020, published 2023).

tested on: HEK293 cells; assay: Preliminary screening as DNA vectors, GFP transfection of HEK293 cells; assay type: cell-based; conditions: amino lipid/DOPE liposome with 75 ng plasmid DNA (psin-EGFP-IRES-Puro); number of GFP-expressing cells divided by total nuclei (Hoechst)
Method in brief: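 Lipid + DOPE liposomes (NaOAc, pH 5.6) complexed w/ 75 ng psin-EGFP-IRES-Puro, 30 min RT; added to 3-5×10^4 HEK293/well, 37° C. Hoechst 0.2 μg/mL at 20-24 h, imaged after further 20-24 h. Efficiency = GFP+ cells / total nuclei.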

Structure (SMILES) | Absolute DNA transfection efficiency in HEK293 cells [%]
CCCCCCCCCCCCCCCCCCNc1nc(NCCCN2CCOCC2)nc(SCCCCCCCCCCCCCCCCCC)n1 [S18N18 D8] | 0.0
CCCCCCCCCCCCCCCNc1nc(NCCN2CCCCC2)nc(SCCCCCCCCCCC)n1 [S11N15 D4] | 9.0
CCCCCCCCCCCCCNc1nc(NCCN2CCCC2)nc(SCCCCCCCCCCCC)n1 [S12N13 D3] | 3.6
CCCCCCCCCCCCCCCNc1nc(NCCN2CCN(C)CC2)nc(SCCCCCCC)n1 [S7N15 D5] | 20.4
CCCCCCCCCCCCCCCCCCSc1nc(NCCCCCCC)nc(NCCN2CCN(C)CC2)n1 [S18N7 D5] | 28.2
CCCCCCCCCSc1nc(NCCCN2CCN(C)CC2)nc(SCCCCCC)n1 [S6S9 D9] | 8.4
CCCCCCCCCCCCCCCCSc1nc(NCCCCCCCCCCCCC)nc(NCCN2CCOCC2)n1 [S16N13 D2] | 0.0
CCCCCCCCCCCCCCCCSc1nc(NCCN2CCCCC2)nc(SCCCCCCC)n1 [S7S16 D4] | 10.9
CCCCCCCCCCCCNc1nc(NCCCN2CCOCC2)nc(SCCCCCCC)n1 [S7N12 D8] | 17.7
CCCCCCCCCCCCCCCCSc1nc(NCCN(C)C)nc(SCCCCCCC)n1 [S7S16 D1] | 10.0
CCCCCCCCSc1nc(NCCCCCCC)nc(NCCCN2CCOCC2)n1 [S8N7 D8] | 0.8
CCCCCCCCCCCCCCCCCCNc1nc(NCCCN2CCN(C)CC2)nc(SCCCCCCC)n1 [S7N18 D9] | 4.2
CCCCCCCCCCCCCCCCNc1nc(NCCCN(C)C)nc(SCCCCCCCCCCCCCCCC)n1 [S16N16 D6] | 0.1
CCCCCCCCCCCCCCCSc1nc(NCCCCCCCCCCCC)nc(NCCCN2CCOCC2)n1 [S15N12 D8] | 1.5
CCCCCCCCCCCCN(CCCCCCCCCCCC)c1nc(NCCCN2CCN(C)CC2)nc(SCCCCCCCCCCC)n1 [S11^2N12 D9] | 0.0
CCCCCCCCCCCCCCCCNc1nc(NCCN(C)C)nc(SCCCCCCCCCC)n1 [S10N16 D1] | 7.8
CCCCCCCCCCCNc1nc(NCCN2CCOCC2)nc(SCCCCCCC)n1 [S7N11 D2] | 31.1
CCCCCCCCCCCCCCCCCCNc1nc(NCCCN(C)C)nc(SCCCCCCCCCCCCCCCCCC)n1 [S18N18 D6] | 0.4
CCCCCCCCCCCCCNc1nc(NCCCN2CCN(C)CC2)nc(SCCCCCCCCCCC)n1 [S11N13 D9] | 4.9
CCCCCCCCCCCCCCCCCCSc1nc(NCCN2CCCCC2)nc(SCCCCCC)n1 [S6S18 D4] | 10.4
CCCCCCCCCCCCCCSc1nc(NCCCCCCC)nc(NCCCN(C)C)n1 [S14N7 D6] | 25.0
CCCCCCCCCCCCCCCCCCNc1nc(NCCN2CCOCC2)nc(SCCCCCCCCCCCC)n1 [S12N18 D2] | 0.0
CCCCCCCCCCCCCNc1nc(NCCN2CCCCC2)nc(SCCCCCC)n1 [S6N13 D4] | 2.1
CCCCCCCCCSc1nc(NCCN2CCCC2)nc(SCCCCCCCC)n1 [S8S9 D3] | 15.1

Structure (SMILES) | Absolute DNA transfection efficiency in HEK293 cells [%]
CCCCCCCCCCCSc1nc(NCCN2CCN(C)CC2)nc(SCCCCCCCC)n1 [S8S11 D5] | 10.6
CCCCCCCCSc1nc(NCCN2CCOCC2)nc(SCCCCCCC)n1 [S7S8 D2] | 0.0
CCCCCCCCCCCCCCCCCCSc1nc(NCCCCCCC)nc(NCCN(CC)CC)n1 [S18N7 D7] | 4.5
CCCCCCNc1nc(NCCN2CCCC2)nc(SCCCCCC)n1 [S6N6 D3] | 0.0
CCCCCCCCCCSc1nc(NCCCCCCCCC)nc(NCCN(C)C)n1 [S10N9 D1] | 7.1
CCCCCCCCCNc1nc(NCCN2CCN(C)CC2)nc(SCCCCCCCCC)n1 [S9N9 D5] | 47.4
CCCCCCCCCCCCCCCNc1nc(NCCN(CC)CC)nc(SCCCCCCCCCCCC)n1 [S12N15 D7] | 3.6
CCCCCCCCCCCCSc1nc(NCCCN2CCN(C)CC2)nc(SCCCCCCCC)n1 [S8S12 D9] | 3.5
CCCCCCCCCCCCCCCNc1nc(NCCN(CC)CC)nc(SCCCCCCC)n1 [S7N15 D7] | 7.2
CCCCCCCCCCSc1nc(NCCCCCCCCC)nc(NCCN2CCOCC2)n1 [S10N9 D2] | 3.7
CCCCCCCCCCCCCCSc1nc(NCCCCCCCCCCCC)nc(NCCN(CC)CC)n1 [S14N12 D7] | 1.1
CCCCCCCCCCCCN(CCCCCCCCCCCC)c1nc(NCCN(C)C)nc(SCCCCCC)n1 [S6^2N12 D1] | 0.4
CCCCCCCCCCCCCCCCCCSc1nc(NCCCCCCCCCCCCCCCC)nc(NCCN2CCOCC2)n1 [S18N16 D2] | 0.0
CCCCCCCCCCCCCCCCSc1nc(NCCN2CCN(C)CC2)nc(SCCCCCC)n1 [S6S16 D5] | 15.2
CCCCCCCCCCCCCCCNc1nc(NCCCN2CCOCC2)nc(SCCCCCCCCC)n1 [S9N15 D8] | 5.3
CCCCCCCCCCCCCCCCSc1nc(NCCCCCCCCC)nc(NCCN(CC)CC)n1 [S16N9 D7] | 5.3
CCCCCCCCCCSc1nc(NCCCCCC)nc(NCC2CCN(C)CC2)n1 [S10N6 D10] | 0.9
CCCCCCCCCCCCCCCCCCSc1nc(NCCCCCCCCCCCC)nc(NCCCN2CCOCC2)n1 [S18N12 D8] | 0.0
CCCCCCCCCCCCCCCCCCSc1nc(NCCCCCCCCCCCCCCCC)nc(NCCCN2CCN(C)CC2)n1 [S18N16 D9] | 0.0
CCCCCCCCCCCCN(CCCCCCCCCCCC)c1nc(NCCCN2CCOCC2)nc(SCCCCCCCC)n1 [S8^2N12 D8] | 0.0
CCCCCCCCSc1nc(NCCCCCCC)nc(NCC2CCN(C)CC2)n1 [S8N7 D10] | 1.2
CCCCCCCCCCCCCCCCCCNc1nc(NCCCN2CCN(C)CC2)nc(SCCCCCCCCCCCCCC)n1 [S14N18 D9] | 0.3
CCCCCCCCCCCCCCCNc1nc(NCC2CCN(C)CC2)nc(SCCCCCCC)n1 [S7N15 D10] | 30.9
CCCCCCCCCCCCCCCSc1nc(NCCCN(C)C)nc(SCCCCCCC)n1 [S7S15 D6] | 7.6

Structure (SMILES) | Absolute DNA transfection efficiency in HEK293 cells [%]
CCCCCCCCCCCCCNc1nc(NCCN(CC)CC)nc(SCCCCCCCCC)n1 [S9N13 D7] | 6.5
CCCCCCCCCCCCCCCCNc1nc(NCCN2CCOCC2)nc(SCCCCCCCCC)n1 [S9N16 D2] | 23.5
CCCCCCCCCCCCCCCCCCNc1nc(NCCN2CCOCC2)nc(SCCCCCCCCCCCCCCCCCC)n1 [S18N18 D2] | 0.1
CCCCCCCCCCCCCNc1nc(NCCCN2CCOCC2)nc(SCCCCCC)n1 [S6N13 D8] | 4.9
CCCCCCCCCCCCCCCNc1nc(NCCCN(C)C)nc(SCCCCCCCCCCCCCC)n1 [S14N15 D6] | 0.8
CCCCCCCCCNc1nc(NCCN2CCOCC2)nc(SCCCCCCCC)n1 [S8N9 D2] | 10.7
CCCCCCCCCCCCCCCNc1nc(NCCN2CCCC2)nc(SCCCCCCCCCC)n1 [S10N15 D3] | 11.5
CCCCCCCCCCCSc1nc(NCCCCCC)nc(NCCN(CC)CC)n1 [S11N6 D7] | 25.0
CCCCCCCCCCCCCCCCCCNc1nc(NCCN2CCCC2)nc(SCCCCCCCCCC)n1 [S10N18 D3] | 11.9
CCCCCCCCCCCCCCCSc1nc(NCCCCCCCCCCCCC)nc(NCCN2CCN(C)CC2)n1 [S15N13 D5] | 1.9
CCCCCCCCCCCCCCCSc1nc(NCCCCCCC)nc(NCCN2CCN(C)CC2)n1 [S15N7 D5] | 12.9
CCCCCCCCCCCNc1nc(NCCN2CCCC2)nc(SCCCCCCCCC)n1 [S9N11 D3] | 43.4
CCCCCCCCCCCCCCCCCCNc1nc(NCC2CCN(C)CC2)nc(SCCCCCCC)n1 [S7N18 D10] | 16.3
CCCCCCCCCSc1nc(NCC2CCN(C)CC2)nc(SCCCCCCCC)n1 [S8S9 D10] | 27.9
CCCCCCCCCCCCCCCCSc1nc(NCCCCCC)nc(NCCCN(C)C)n1 [S16N6 D6] | 24.1
CCCCCCCCCCCCCCCCCCSc1nc(NCCN2CCOCC2)nc(SCCCCCCC)n1 [S7S18 D2] | 7.1
CCCCCCCCCCCCCCSc1nc(NCCN2CCCC2)nc(SCCCCCCC)n1 [S7S14 D3] | 8.4
CCCCCCCCCCCCCCCCCCSc1nc(NCCCN(C)C)nc(SCCCCCCC)n1 [S7S18 D6] | 5.5
CCCCCCCCCSc1nc(NCCCCCC)nc(NCCN(CC)CC)n1 [S9N6 D7] | 9.8
CCCCCCCCCCCCCCCCCCSc1nc(NCCCCCCCCCCCCC)nc(NCCCN2CCN(C)CC2)n1 [S18N13 D9] | 1.8
CCCCCCCCCCCCSc1nc(NCCCCCCC)nc(NCCCN2CCOCC2)n1 [S12N7 D8] | 0.3
CCCCCCCCCCCCN(CCCCCCCCCCCC)c1nc(NCCN2CCOCC2)nc(SCCCCCCCCC)n1 [S9^2N12 D2] | 0.0
CCCCCCCCCCCCCCCCNc1nc(NCCN2CCOCC2)nc(SCCCCCCCCCCC)n1 [S11N16 D2] | 3.5
